Results taken from patent US20260055110A1 (Azura Ophthalmics Ltd., priority 2021, published 2026).

Legend:
dry eye = settings: murine model; Sadrai et al 2012; cited from earlier work
alopecia = settings: humans and murine models; NCT02974868; cited from earlier work
uveitis = settings: humans and/or murine models; Gangaputra 2009; cited from earlier work
[1] = tested on: keratoconjunctivitis and dry eye disease; settings: humans and/or dogs; Kravetz de Oliveira 2019; cited from earlier work
[2] = tested on: dermatitis, keratoconjunctivitis, dry eye disease; settings: humans and/or dogs; literature; cited from earlier work
[3] = tested on: psoriasis, alopecia, uveitis; settings: murine models; Mesa 2010, Falto-Aizpurua et al 2014, Lin et al 2021; cited from earlier work
[4] = tested on: psoriasis, alopecia, dermatitis, dry eye disease; settings: humans and/or murine models; literature; cited from earlier work
[5] = target: T1, glucocorticoid receptor (GR) (Homo sapiens, UniProt P04150); assay: Glucocorticoid Binding Assay, GR (h) (agonist radioligand); settings: IM9 cytosol, 3H-dexamethasone competitive binding
T1 construct: by mixing 1 mg of IM9 cytosol; host or cells: IM9 human lymphoblast cell cytosol
T1 sequence (P04150 1-777): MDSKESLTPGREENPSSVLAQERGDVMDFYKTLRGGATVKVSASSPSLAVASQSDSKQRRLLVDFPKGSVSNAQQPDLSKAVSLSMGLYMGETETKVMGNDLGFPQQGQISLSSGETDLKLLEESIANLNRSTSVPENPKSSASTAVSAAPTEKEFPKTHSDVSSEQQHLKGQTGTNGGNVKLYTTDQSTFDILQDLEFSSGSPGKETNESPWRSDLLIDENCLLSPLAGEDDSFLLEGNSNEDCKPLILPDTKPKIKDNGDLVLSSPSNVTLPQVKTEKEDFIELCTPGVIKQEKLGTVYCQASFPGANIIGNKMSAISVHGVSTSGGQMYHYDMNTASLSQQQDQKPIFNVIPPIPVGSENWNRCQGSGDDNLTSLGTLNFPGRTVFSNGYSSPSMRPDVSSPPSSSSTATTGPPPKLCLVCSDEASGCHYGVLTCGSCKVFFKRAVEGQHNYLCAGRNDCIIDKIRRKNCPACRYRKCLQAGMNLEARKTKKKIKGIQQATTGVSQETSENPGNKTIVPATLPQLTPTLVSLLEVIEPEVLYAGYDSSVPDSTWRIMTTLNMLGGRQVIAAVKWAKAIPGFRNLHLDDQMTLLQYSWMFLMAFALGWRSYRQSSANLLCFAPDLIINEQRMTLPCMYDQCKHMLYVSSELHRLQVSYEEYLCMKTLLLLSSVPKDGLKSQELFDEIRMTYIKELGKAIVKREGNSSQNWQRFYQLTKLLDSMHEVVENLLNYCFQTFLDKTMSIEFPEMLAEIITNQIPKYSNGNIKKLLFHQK
Description: GR (h) (agonist radioligand) assay performed by Eurofins Cerep, France using a method similar to the one described hereinbelow.
The human lymphoblast cell line IM9 is used as a source of the soluble glucocorticoid receptor (GR). The cells are grown to densities of 1 to 10×10^5 cells per milliliter in RPMI 1640 media containing 10% fetal bovine serum, penicillin (100 U/ml), streptomycin (100 μg/ml), and 2 mM L-glutamine at […] and 7% CO2 in a humidified incubator. The IM9 cells are harvested from the media by centrifugation for 10 minutes at 1500 g. Cells are washed in 12 volumes of Dulbecco's phosphate-buffered saline (PBS) and re-pelleted. Washed cells are resuspended in five to six volumes (per volume of packed cells) of homogenization buffer (10 mM TES, 10 mM sodium molybdate, 1 mM EDTA, pH 7.4, 20 mM 2-mercaptoethanol, and 10% glycerol), and the cells are broken by nitrogen cavitation using 2×15 minutes at 600 to 750 psi nitrogen in the N2 cavitator at 0° C. Cell disruption is confirmed by Hoffman contrast microscopy using a Nikon Diaphot. The broken cell preparation is then centrifuged at 27,000 g for 15 minutes, and the resultant supernatant was centrifuged at 103,000 g for 60 minutes at 4° C. The amount of protein in the supernatant fraction is determined using a BCA assay kit with a bovine serum albumin standard. Aliquots of the supernatant fraction are snap frozen in a dry ice-acetone bath and stored at −70° C. Competitive binding assays are done in duplicate in homogenization buffer (total volume of […]) by mixing 1 mg of IM9 cytosol, 0.05/ρCi (3 nM) of ^3H-dexamethasone, and Compounds described herein (10^−5 to 10^−11 M). After incubation at 0° C. for 16 to 18 hours, the assay is stopped by the addition of […] of a charcoal-dextran mixture (2% activated charcoal, 0.5% dextran in 10 mM Tris, 1 mM EDTA, pH 7.4). The assay mixture is further incubated at 0° C. for 10 minutes before being centrifuged for 5 minutes at 8200 g. A 100-μl sample of the supernatant (protein-bound steroid fraction) is assayed for radioactivity by liquid scintillation spectrometry, and the IC50 values were determined graphically.
In some instances, an ester is active in the glucocorticoid binding assay. In some instances, an ester retains activity, such as when attached to a keratolytic agent (or a radical thereof), in the glucocorticoid binding assay.

Rabbit Cornea Esterase = assay: Rabbit Cornea Homogenate Stability Assay (Rabbit Cornea Esterase Assay); type: in vitro ADME; settings: Table 13, rabbit breed not given
Description: Example 1: Rabbit Cornea Homogenate Stability Assay […]
Three to four rabbit corneas (e.g., New Zealand Whites (NZW) or Dutch Belted (DB)) of approx. 50 mg each were sliced and scraped with a scalpel and tweezers until reduced to small (1-3 mm), thin pieces. These were transferred into a glass vial containing approximately 2 mL of cold DPBS pH 7.4 buffer.
Sample was cooled intermittently on ice and shear homogenized for 3 minutes, then centrifuged for 3 min at 13,000 g. The supernatant was pipetted off into a vial, and total protein concentration determined at 280 nm. Sample was stored at −78° C.
10 mM Compound DMSO stocks were diluted to 10 μM in a glass vial: 10 μL of 10 mM Compound stock was added to 9,990 μl 50 mM DPBS, pH 7.4 buffer. Esterase homogenate was diluted to 300 ng/μl and 900 ng/μL in DPBS.
A heater shaker was set to 37° C. Into a suitable 96 well plate (Run Plate), 70 μL of 300 or 900 ng/μl esterase homogenate was pipetted into two rows as compounds were analyzed in duplicate (2 min, 5 min, 10 min, 20 min and 45 min). The plate was sealed and then warmed at 37° C. for 5 min.
Two 96 deep-well plates were put on ice (Kill Plates). To these, 990 μL of 50:50 MeCN—H2O were added to required rows, labelled 0 min 2 min, 5 min, 10 min, 20 min and 45 min. The plates were covered to minimize evaporation.
To both rows of the Run Plate, 70 μL of 10 μM compound solution was added. At the appropriate time point, 10 μL of the assay mixture was added to the matching kill plate well containing 990 μL of 50:50 cold MeCN—H2O. Samples were analyzed as soon as practicable by UPLC-MS (Waters Xevo TQ-S).
A heater shaker was set to 37° C. Into a suitable 96 well plate (Run Plate), 80 μL of 300 or 900 ng/μL esterase homogenate was pipetted into two rows as compounds were analyzed in duplicate (2 min, 5 min, 10 min, 20 min and 45 min). The plate was sealed and then warmed at 37° C. for 5 min.
Two 96 shallow-well plates were placed on ice (Kill Plates). To these, 180 μL of 60:40 MeCN-H2O+0.1% acetic acid are added to required rows. The plates were sealed to minimize evaporation.
To both rows of the Run Plate, 80 μL of 10 μM compound solution was added. At the appropriate time point, 20 μL of the assay mixture was added to the matching kill plate well containing 180 μL of 60:40 cold MeCN-H2O+0.1% acetic acid. For lipoic acid analysis, samples were analyzed as soon as practicable by LCMS (Waters Xevo TQ-S). For parent conjugate and parent analysis the samples are diluted further 1 in 10: 20 μL supernatant is added to 180 μL of 50:50 MeCN—H2O.

COc1ccc([C@]2(C#N)CC[C@@H](C(=O)O)CC2)cc1OC1CCCC1 [Cilomilast, cis-4-cyano-4-[3-(cyclopentyloxy)-4-methoxyphenyl]cyclohexanecarboxylic acid]
objective signs of dry eye (dry eye): improvements in objective signs

C=CC(=O)N1C[C@H](Nc2ncnc3[nH]ccc23)CC[C@@H]1C [Ritlecitinib, 1-((2S,5R)-5-((7H-pyrrolo[2,3-d]pyrimidin-4-yl)amino)-2-methylpiperidin-1-yl)prop-2-en-1-one]
objective signs of alopecia (alopecia): improvements in objective signs

CN(Cc1cnc2nc(N)nc(N)c2n1)c1ccc(C(=O)N[C@@H](CCC(=O)O)C(=O)O)cc1 [methotrexate, (2S)-2-[(4-{[(2,4-Diaminopteridin-6-yl)methyl](methyl)amino}benzoyl)amino]pentanedioic acid]
objective signs of uveitis (uveitis): improvements in objective signs

C=CC[C@H]1/C=C(/C)C[C@@H](C)C[C@@H](OC)[C@@H]2O[C@@](O)(C(=O)C(=O)N3CCCCC3C(=O)O[C@H](/C(C)=C/[C@@H]3CC[C@@H](O)[C@H](OC)C3)[C@H](C)[C@@H](O)CC1=O)[C@H](C)C[C@@H]2OC (single isomer, unassigned; (-)) [Tacrolimus]
objective signs of keratoconjunctivitis and dry eye disease [1]: improvements in objective signs

CNS(=O)(=O)C[C@H]1CC[C@H](N(C)c2ncnc3[nH]ccc23)CC1 [Oclacitinib, N-methyl{trans-4-[methyl(7H-pyrrolo[2,3-d]pyrimidin-4-yl)amino]cyclohexyl}methanesulfonamide]
objective signs of dermatitis, keratoconjunctivitis and dry eye disease [2]: improvements in objective signs

N#CC[C@H](C1CCCC1)n1cc(-c2ncnc3[nH]ccc23)cn1 [Ruxolitinib, (3R)-3-Cyclopentyl-3-[4-(7H-pyrrolo[2,3-d]pyrimidin-4-yl)pyrazol-1-yl]propanenitrile]
objective signs of psoriasis, alopecia and uveitis [3]: improvements in objective signs

C[C@@H]1CCN(C(=O)CC#N)C[C@@H]1N(C)c1ncnc2[nH]ccc12 [Tofacitinib, 3-[(3R,4R)-4-Methyl-3-[methyl(7H-pyrrolo[2,3-d]pyrimidin-4-yl)amino]piperidin-1-yl]-3-oxopropanenitrile]
objective signs of psoriasis, alopecia, dermatitis and dry eye disease [4]: improvements in objective signs

CC(=O)N1[C@H](C(=O)O[C@]2(C(=O)O)[C@H](C)C[C@H]3[C@@H]4C[C@H](F)C5=CC(=O)C=C[C@]5(C)[C@@]4(F)[C@@H](O)C[C@@]32C)CSC1(C)C [Chemical Synthesis Example 70, (6S,8S,9R,10S,11S,13S,14S,16R,17R)-17-(((R)-3-Acetyl-2,2-dimethylthiazolidine-4-carbonyl)oxy)-6,9-difluoro-11-hydroxy-10,13,16-trimethyl-3-oxo-6,7,8,9,10,11,12,13,14,15,16,17-dodecahydro-3H-cyclopenta[a]phenanthrene-17-carboxylic acid]
EC50 [5]: > 100 nM

C[C@@H]1C[C@H]2[C@@H]3C[C@H](F)C4=CC(=O)C=C[C@]4(C)[C@@]3(F)[C@@H](O)C[C@]2(C)[C@@]1(OC(=O)CCCC[C@@H]1CCSS1)C(=O)OCC#N [Compound 73A, Cyanomethyl (6S,8S,9R,10S,11S,13S,14S,16R,17R)-17-((5-((R)-1,2-dithiolan-3-yl)pentanoyl)oxy)-6,9-difluoro-11-hydroxy-10,13,16-trimethyl-3-oxo-6,7,8,9,10,11,12,13,14,15,16,17-dodecahydro-3H-cyclopenta[a]phenanthrene-17-carboxylate]
EC50 [5]: > 100 nM | Esterase (0.15 mg/mL) % parent released after 45 min (Rabbit Cornea Esterase; rabbit cornea homogenate 0.15 mg/mL): A (<25%) | Esterase (0.45 mg/mL) % parent released after 45 min (Rabbit Cornea Esterase; rabbit cornea homogenate 0.45 mg/mL): A (<25%)
